Experimental data published in the supplement of paper PMC10011410.
± gives the standard deviation of the averaged measurements.

What was measured:
U-2 OS [1] = experiment: cell painting activity score (Mahalanobis distance from DMSO wells); higher = stronger morphological phenotype; settings: 24 h
Summary of the method: (§1)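 In this cell painting assay, roughly 1,500 U-2 OS cells per well in 384-well plates were pin-tool treated at 37 °C for 24 h, typically at six 2-fold steps from 20 μM down to 625 nM. Cells were stained with MitoTracker, concanavalin A, phalloidin, wheat germ agglutinin, Hoechst and SYTO 14, imaged on an Opera Phenix, and analysed in CellProfiler with normalization to same-plate DMSO cells. Reported values are means of four replicate plates, with the activity score defined as the Mahalanobis distance from DMSO wells and cell count defined relative to DMSO wells.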

U-2 OS [2] = experiment: AUC of culture confluence over time (live-cell imaging) (AUC (confluence % x time)); higher = more confluent culture (less growth inhibition)
Protocol: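 Live-cell Incucyte imaging of U-2 OS cells in F-12K medium. Compounds were tested mostly at 5, 10 and 20 uM, and cells were imaged every 4 h for up to 60 h. Value is the area under the curve of phase-contrast confluence over time.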

U-2 OS [3] = experiment: relative cell count vs DMSO (cell painting) (fraction of DMSO control); higher = more cells remaining (less cytotoxic); settings: 24 h
Summary of the method: as §1

U-2 OS [4] = experiment: total intracellular glutathione (GSH + GSSG) relative to DMSO (% of control); higher = more glutathione; settings: 24 h
Protocol: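 Total intracellular glutathione (GSH + GSSG) in U-2 OS cells by GSH/GSSG-Glo after 24 h compound treatment at 5, 10 and 20 uM (some at 40 and 80 uM), as percent of DMSO control. Five technical replicate plates, averaged.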

U-2 OS [5] = experiment: cell viability (CellTiter-Glo) relative to DMSO (% of control); higher = more viable; settings: 24 h
Protocol: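 Cell viability of U-2 OS cells by CellTiter-Glo after 24 h compound treatment at 5, 10 and 20 uM (some at 40 and 80 uM), measured in parallel with the glutathione assay, as percent of DMSO control. Five technical replicate plates, averaged.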

Cc1cnc(CNC(=O)c2c(=O)c3ccc(N4CCCN(C)CC4)nc3n3c2sc2ccccc23)cn1
cell painting activity score (U-2 OS [1]; 0.625 µM): 9.34
cell painting activity score (U-2 OS [1]; 1.25 µM): 10.9
cell painting activity score (U-2 OS [1]; 2.5 µM): 10.3
cell painting activity score (U-2 OS [1]; 5 µM): 10.4
cell painting activity score (U-2 OS [1]; 10 µM): 11.4
cell painting activity score (U-2 OS [1]; 20 µM): 11
AUC of culture confluence over time (U-2 OS [2]; 5 µM): 33.9
AUC of culture confluence over time (U-2 OS [2]; 10 µM): 34.5
AUC of culture confluence over time (U-2 OS [2]; 20 µM): 35
relative cell count (U-2 OS [3]; 0.625 µM): 0.709
relative cell count (U-2 OS [3]; 1.25 µM): 0.607
relative cell count (U-2 OS [3]; 2.5 µM): 0.591
relative cell count (U-2 OS [3]; 5 µM): 0.572
relative cell count (U-2 OS [3]; 10 µM): 0.559
relative cell count (U-2 OS [3]; 20 µM): 0.548

N[C@@H](Cc1ccc(N(CCCl)CCCl)cc1)C(=O)O
cell painting activity score (U-2 OS [1]; 0.625 µM): 3.56
cell painting activity score (U-2 OS [1]; 1.25 µM): 5.26
cell painting activity score (U-2 OS [1]; 2.5 µM): 5.71
cell painting activity score (U-2 OS [1]; 5 µM): 6.03
cell painting activity score (U-2 OS [1]; 10 µM): 8.71
cell painting activity score (U-2 OS [1]; 20 µM): 9.32
AUC of culture confluence over time (U-2 OS [2]; 5 µM): 34.2
AUC of culture confluence over time (U-2 OS [2]; 10 µM): 33.1
AUC of culture confluence over time (U-2 OS [2]; 20 µM): 30.4
relative cell count (U-2 OS [3]; 0.625 µM): 0.959
relative cell count (U-2 OS [3]; 1.25 µM): 0.939
relative cell count (U-2 OS [3]; 2.5 µM): 0.879
relative cell count (U-2 OS [3]; 5 µM): 0.883
relative cell count (U-2 OS [3]; 10 µM): 0.733
relative cell count (U-2 OS [3]; 20 µM): 0.723

CC(C)(C)C(=O)OCOc1cccc2c1C(=O)C1C3C=CC(CC3)C1C2=O (stereo unspecified)
cell painting activity score (U-2 OS [1]; 0.625 µM): 5.7
cell painting activity score (U-2 OS [1]; 1.25 µM): 6.22
cell painting activity score (U-2 OS [1]; 2.5 µM): 7.75
cell painting activity score (U-2 OS [1]; 5 µM): 8.44
cell painting activity score (U-2 OS [1]; 10 µM): 12.8
cell painting activity score (U-2 OS [1]; 20 µM): 13.5
AUC of culture confluence over time (U-2 OS [2]; 5 µM): 37.6
AUC of culture confluence over time (U-2 OS [2]; 10 µM): 26.3
AUC of culture confluence over time (U-2 OS [2]; 20 µM): 20
relative cell count (U-2 OS [3]; 0.625 µM): 0.973
relative cell count (U-2 OS [3]; 1.25 µM): 0.963
relative cell count (U-2 OS [3]; 2.5 µM): 0.986
relative cell count (U-2 OS [3]; 5 µM): 0.929
relative cell count (U-2 OS [3]; 10 µM): 0.787
relative cell count (U-2 OS [3]; 20 µM): 0.554

CC(C)[C@H]1OC(=O)[C@H](Cc2ccccc2)N(C)C(=O)[C@@H](C(C)C)OC(=O)[C@H](Cc2ccccc2)N(C)C(=O)[C@@H](C(C)C)OC(=O)[C@H](Cc2ccccc2)N(C)C1=O
cell painting activity score (U-2 OS [1]; 0.625 µM): 3.92
cell painting activity score (U-2 OS [1]; 1.25 µM): 4.9
cell painting activity score (U-2 OS [1]; 2.5 µM): 9.63
cell painting activity score (U-2 OS [1]; 5 µM): 14.2
cell painting activity score (U-2 OS [1]; 10 µM): 15.5
cell painting activity score (U-2 OS [1]; 20 µM): 34.1
AUC of culture confluence over time (U-2 OS [2]; 5 µM): 19.7
AUC of culture confluence over time (U-2 OS [2]; 10 µM): 28.9
AUC of culture confluence over time (U-2 OS [2]; 20 µM): 11.6
relative cell count (U-2 OS [3]; 0.625 µM): 0.976
relative cell count (U-2 OS [3]; 1.25 µM): 0.957
relative cell count (U-2 OS [3]; 2.5 µM): 0.981
relative cell count (U-2 OS [3]; 5 µM): 0.73
relative cell count (U-2 OS [3]; 10 µM): 0.439
relative cell count (U-2 OS [3]; 20 µM): 0.0218

CCOc1ccccc1-n1c(C(C)N2CCN(C(=O)COc3ccc(Cl)cc3)CC2)nc2ccccc2c1=O (stereo unspecified)
cell painting activity score (U-2 OS [1]; 0.625 µM): 6.32
cell painting activity score (U-2 OS [1]; 1.25 µM): 5.84
cell painting activity score (U-2 OS [1]; 2.5 µM): 6.59
cell painting activity score (U-2 OS [1]; 5 µM): 9.13
cell painting activity score (U-2 OS [1]; 10 µM): 10.4
cell painting activity score (U-2 OS [1]; 20 µM): 14.2
total intracellular glutathione (U-2 OS [4]; 5 µM): 10.4 ± 0.54
total intracellular glutathione (U-2 OS [4]; 10 µM): 2.5 ± 0.32
total intracellular glutathione (U-2 OS [4]; 20 µM): 1.15 ± 0.16
AUC of culture confluence over time (U-2 OS [2]; 5 µM): 45
AUC of culture confluence over time (U-2 OS [2]; 10 µM): 40
AUC of culture confluence over time (U-2 OS [2]; 20 µM): 39.9
cell viability (U-2 OS [5]; 5 µM): 102 ± 3.5
cell viability (U-2 OS [5]; 10 µM): 95.2 ± 4.2
cell viability (U-2 OS [5]; 20 µM): 40.6 ± 14
relative cell count (U-2 OS [3]; 0.625 µM): 0.983
relative cell count (U-2 OS [3]; 1.25 µM): 0.945
relative cell count (U-2 OS [3]; 2.5 µM): 0.996
relative cell count (U-2 OS [3]; 5 µM): 0.969
relative cell count (U-2 OS [3]; 10 µM): 0.922
relative cell count (U-2 OS [3]; 20 µM): 0.508

CCC(=O)CCCCC[C@@H]1NC(=O)[C@H]2CCCCN2C(=O)[C@H]([C@@H](C)CC)NC(=O)[C@H](Cc2cn(OC)c3ccccc23)NC1=O
cell painting activity score (U-2 OS [1]; 0.625 µM): 16.3
cell painting activity score (U-2 OS [1]; 1.25 µM): 16
cell painting activity score (U-2 OS [1]; 2.5 µM): 16.4
cell painting activity score (U-2 OS [1]; 5 µM): 16
cell painting activity score (U-2 OS [1]; 10 µM): 13.2
cell painting activity score (U-2 OS [1]; 20 µM): 13.1
AUC of culture confluence over time (U-2 OS [2]; 5 µM): 22.3
AUC of culture confluence over time (U-2 OS [2]; 10 µM): 21.7
AUC of culture confluence over time (U-2 OS [2]; 20 µM): 19.6
relative cell count (U-2 OS [3]; 0.625 µM): 0.946
relative cell count (U-2 OS [3]; 1.25 µM): 0.821
relative cell count (U-2 OS [3]; 2.5 µM): 0.617
relative cell count (U-2 OS [3]; 5 µM): 0.59
relative cell count (U-2 OS [3]; 10 µM): 0.617
relative cell count (U-2 OS [3]; 20 µM): 0.553

Oc1ccc2ccccc2c1SSc1c(O)ccc2ccccc12
cell painting activity score (U-2 OS [1]; 0.625 µM): 5.34
cell painting activity score (U-2 OS [1]; 1.25 µM): 4.94
cell painting activity score (U-2 OS [1]; 2.5 µM): 7.79
cell painting activity score (U-2 OS [1]; 5 µM): 8.22
cell painting activity score (U-2 OS [1]; 10 µM): 9.14
cell painting activity score (U-2 OS [1]; 20 µM): 14
AUC of culture confluence over time (U-2 OS [2]; 5 µM): 44.4
AUC of culture confluence over time (U-2 OS [2]; 10 µM): 37.5
AUC of culture confluence over time (U-2 OS [2]; 20 µM): 18
relative cell count (U-2 OS [3]; 0.625 µM): 0.996
relative cell count (U-2 OS [3]; 1.25 µM): 0.924
relative cell count (U-2 OS [3]; 2.5 µM): 0.926
relative cell count (U-2 OS [3]; 5 µM): 0.901
relative cell count (U-2 OS [3]; 10 µM): 0.812
relative cell count (U-2 OS [3]; 20 µM): 0.245

O=c1c(O)c(-c2ccc(O)c(O)c2)oc2cc(O)ccc12
cell painting activity score (U-2 OS [1]; 0.625 µM): 5.44
cell painting activity score (U-2 OS [1]; 1.25 µM): 5.04
cell painting activity score (U-2 OS [1]; 2.5 µM): 4.93
cell painting activity score (U-2 OS [1]; 5 µM): 4.23
cell painting activity score (U-2 OS [1]; 10 µM): 4.83
cell painting activity score (U-2 OS [1]; 20 µM): 7.46
AUC of culture confluence over time (U-2 OS [2]; 5 µM): 52.8
AUC of culture confluence over time (U-2 OS [2]; 10 µM): 52
AUC of culture confluence over time (U-2 OS [2]; 20 µM): 47.7
relative cell count (U-2 OS [3]; 0.625 µM): 0.969
relative cell count (U-2 OS [3]; 1.25 µM): 0.938
relative cell count (U-2 OS [3]; 2.5 µM): 0.943
relative cell count (U-2 OS [3]; 5 µM): 0.939
relative cell count (U-2 OS [3]; 10 µM): 0.932
relative cell count (U-2 OS [3]; 20 µM): 0.945
